According to US7799797B2, “Arylsulfonyl naphthalene derivatives and uses thereof” (Roche Palo Alto LLC, priority 2006, dated 2010):

Legend:
[1] = target: T1, recombinant human 5-HT2A receptor (Homo sapiens, UniProt P28223); assay: Radioligand binding, [3H]Ketanserin competition in CHO-K1 cell membranes; conditions: [3H]Ketanserin displacement, pH 7.4, 32° C., read-out: pKi for 5-HT2A (converted)
T1 construct: expressed in transfected cells
Method: (§1) The binding activity of compounds of this invention in vitro was determined as follows. Duplicate determinations of 5-HT6 ligand affinity were made by competing for binding of [^3H]LSD in cell membranes derived from HEK293 cells stably expressing recombinant human 5-HT6 receptor. Duplicate determinations of 5-HT2A ligand affinity were made by competing for binding of [^3H]Ketanserin (3-(2-(4-(4-fluorobenzoyl)piperidinol)ethyl)-2,4(1H, 3H)-quinazolinedione) in cell membranes derived from CHO-K1 cells stably expressing recombinant human 5-HT2A receptor. Membranes were prepared from HEK 293 cell lines by the method described by Monsma et al., Molecular Pharmacology, Vol. 43 pp. 320-327 (1993), and from CHO-K1 cell lines as described by Bonhaus et al., Br J. Pharmacol. June; 115(4):622-8 (1995).
(§2) For estimation of affinity at the 5-HT6 receptor, all determinations were made in assay buffer containing 50 mM Tris-HCl, 10 mM MgSO4, 0.5 mM EDTA, 1 mM ascorbic acid, pH 7.4 at 37° C., in a 250 microliter reaction volume. […]
(§3) Assay tubes containing [^3H] […] LSD or [^3H]Ketanserin were determined as radioactive counts per minute using Packard TopCount.
(§4) Displacement of [^3H]LSD or [^3H]Ketanserin from the binding sites was quantified by fitting concentration-binding data to a 4-parameter logistic equation: […]

[2] = target: T2, recombinant human 5-HT6 receptor (Homo sapiens, UniProt P50406); assay: Radioligand binding, [3H]LSD competition in HEK293 cell membranes; conditions: [3H]LSD displacement, pH 7.4, 37° C., read-out: pKi for 5-HT6 (converted)
T2 construct: expressed in transfected cells
T2 sequence (P50406 whole entry): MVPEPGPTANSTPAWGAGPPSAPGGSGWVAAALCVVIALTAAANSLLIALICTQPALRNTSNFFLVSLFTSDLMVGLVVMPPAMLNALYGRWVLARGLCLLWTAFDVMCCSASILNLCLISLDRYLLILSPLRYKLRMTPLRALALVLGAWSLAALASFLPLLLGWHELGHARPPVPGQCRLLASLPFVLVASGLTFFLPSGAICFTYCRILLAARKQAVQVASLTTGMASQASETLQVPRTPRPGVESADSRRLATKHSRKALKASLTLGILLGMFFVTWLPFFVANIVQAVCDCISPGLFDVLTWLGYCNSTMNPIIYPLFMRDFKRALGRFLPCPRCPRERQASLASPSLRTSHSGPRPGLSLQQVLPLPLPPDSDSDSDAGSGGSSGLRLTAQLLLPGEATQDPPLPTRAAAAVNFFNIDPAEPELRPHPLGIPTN
Method: as §1, §2, §3, §4

T1 sequence (P28223 whole entry): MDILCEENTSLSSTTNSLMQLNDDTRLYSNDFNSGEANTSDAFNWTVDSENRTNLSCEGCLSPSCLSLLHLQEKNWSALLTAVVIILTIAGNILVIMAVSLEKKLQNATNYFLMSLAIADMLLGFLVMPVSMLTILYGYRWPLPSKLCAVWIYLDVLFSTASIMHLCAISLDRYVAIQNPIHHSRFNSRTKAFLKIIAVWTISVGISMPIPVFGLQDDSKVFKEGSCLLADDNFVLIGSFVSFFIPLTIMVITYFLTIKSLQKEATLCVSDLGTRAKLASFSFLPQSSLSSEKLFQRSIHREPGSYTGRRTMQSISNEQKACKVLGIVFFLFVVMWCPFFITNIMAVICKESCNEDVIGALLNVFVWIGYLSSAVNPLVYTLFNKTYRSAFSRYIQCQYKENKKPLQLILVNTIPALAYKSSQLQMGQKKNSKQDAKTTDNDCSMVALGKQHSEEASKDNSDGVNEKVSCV

SMILES	Ki [1]	Ki [2]
NCc1cccc2cc(S(=O)(=O)c3cccc(F)c3)ccc12 [Compound 2, C-[6-(3-Fluoro-benzenesulfonyl)-naphthalen-1-yl]-methylamine]	~5.01 nM	–
CNCc1cccc2cc(S(=O)(=O)c3ccccc3)ccc12 [Compound 1, (6-Benzenesulfonyl-naphthalen-1-ylmethyl)-methyl-amine]	–	~0.447 nM
